Reference: PubChem BioAssay (NCI)
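Compound exposure: 48 hours, 5 concentrations, 96-well plates. GI50 = concentration required for 50% inhibition of growth. TGI: total growth inhibition.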

How the values were obtained:
Experiment in all cases: NCI anticancer screen, dose series, 48 h
786-0 renal = system: 786-0 renal
MDA-MB-435 = system: MDA-MB-435
NCI-H522 lung = system: NCI-H522 lung
RXF 393 renal = system: RXF 393 renal
SF-268 CNS = system: SF-268 CNS
SF-539 CNS = system: SF-539 CNS
SK-OV-3 ovarian = system: SK-OV-3 ovarian
SR leukemia = system: SR leukemia
TK-10 renal = system: TK-10 renal
UACC-257 melanoma = system: UACC-257 melanoma

SMILES | GI50 (786-0 renal) | TGI (786-0 renal) | GI50 (MDA-MB-435) | TGI (MDA-MB-435) | GI50 (NCI-H522 lung) | TGI (NCI-H522 lung) | GI50 (RXF 393 renal) | TGI (RXF 393 renal) | GI50 (SF-268 CNS) | TGI (SF-268 CNS) | GI50 (SF-539 CNS) | TGI (SF-539 CNS) | GI50 (SK-OV-3 ovarian) | TGI (SK-OV-3 ovarian) | GI50 (SR leukemia) | TGI (SR leukemia) | GI50 (TK-10 renal) | TGI (TK-10 renal) | GI50 (UACC-257 melanoma) | TGI (UACC-257 melanoma)
Nc1ccc2c(c1)[O][Sn]([c]1ccccc1)([c]1ccccc1)[O]C2=O | 3.79 µM | 7.95 µM | 6.78 µM | 17.3 µM | 0.592 µM | 2.36 µM | 2.06 µM | 6.09 µM | 7.63 µM | 21.2 µM | 9.5 µM | 18.8 µM | 14.7 µM | 43.8 µM | 3.01 µM | > 30.4 µM | 7.34 µM | 15.6 µM | 8.14 µM | 20 µM
Cc1ccc(S(=O)(=O)NCCN2c3nc4ccccc4cc3Sc3cc4ccccc4nc32)cc1 | 1.67 µM | > 45.9 µM | > 100 µM | > 100 µM | 44.4 µM | > 100 µM | 22.1 µM | 66.3 µM | 11.4 µM | > 100 µM | 4.79 µM | 20.5 µM | 7.82 µM | 54.2 µM | > 100 µM | > 100 µM | 28.6 µM | > 100 µM | > 100 µM | > 100 µM
c1cc(-c2sc(-c3ccncc3)c(-c3ccncc3)c2-c2ccncc2)ccn1 | – | 33 µM | – | 33.4 µM | – | 35.9 µM | – | 33.4 µM | – | 37.7 µM | – | 35 µM | – | 54 µM | – | > 100 µM | – | 32.9 µM | – | 31.8 µM
OC1CCC(Oc2cccc3cnc(Nc4ccc5nc[nH]c5c4)nc23)CC1 (stereo not given) | 0.336 µM | 10.1 µM | 0.612 µM | 12.1 µM | 1.13 µM | 5.3 µM | 0.208 µM | 0.504 µM | 0.413 µM | 12.8 µM | 0.215 µM | 0.708 µM | 3.35 µM | 47.8 µM | 0.143 µM | 0.671 µM | 0.296 µM | 11.4 µM | 1.2 µM | 8.92 µM
COc1ccc([N+](=O)[O-])c2c(NCC(O)CO)ccnc12 (stereo not given) | – | > 100 µM | – | > 100 µM | – | 30.2 µM | – | > 100 µM | – | > 100 µM | – | 90.1 µM | – | > 100 µM | – | > 100 µM | – | > 100 µM | – | 95.9 µM
c1ccc2c(NCCCCCCCCNc3c4ccccc4nc4ccccc34)c3ccccc3nc2c1 | – | 1.95 µM | – | 2.35 µM | – | 1.88 µM | – | 0.387 µM | – | 2.1 µM | – | 1.15 µM | – | 2.71 µM | – | 0.755 µM | – | 5.98 µM | – | 3.02 µM
Nc1ncnc2c1ncn2C1OC(C(=O)O)C(O)C1O (stereo not given) | – | > 100 µM | – | > 100 µM | – | > 100 µM | – | > 100 µM | – | > 100 µM | – | > 100 µM | – | > 100 µM | – | > 100 µM | – | > 100 µM | – | > 100 µM
CC1=CC[C@@H]2C(C)(C)[C@@H](O)CC[C@@]2(C)[C@@H]1COc1ccc2ccc(=O)oc2c1 | 13 µM | 28 µM | 10.3 µM | 23.9 µM | 3.81 µM | 22.1 µM | 13.2 µM | 35.3 µM | 6.5 µM | 26.3 µM | 12.3 µM | 28.5 µM | 15.5 µM | 32.3 µM | 7.92 µM | 42 µM | 12.5 µM | 26.4 µM | 12.4 µM | 26.2 µM
COC(=O)c1ccc2c(c1)c1c(C)c3cnccc3c(C)c1n2C | 0.0666 µM | 1.34 µM | 0.0585 µM | 1.09 µM | 0.0667 µM | 0.528 µM | 0.0512 µM | 0.286 µM | 0.0618 µM | 3.06 µM | 0.075 µM | 0.763 µM | 0.107 µM | 0.527 µM | 0.0372 µM | 2.04 µM | 0.277 µM | 3.35 µM | 0.101 µM | 0.511 µM
O=c1c(OC/C(=N/O)c2ccccc2)c(-c2ccccc2)oc2ccccc12 | 19 µM | > 50 µM | 10.9 µM | 28 µM | 17 µM | > 50 µM | 20.8 µM | > 50 µM | 11.7 µM | 25 µM | 12.5 µM | 28 µM | 20.3 µM | > 50 µM | 13.9 µM | > 50 µM | 11.6 µM | 22.8 µM | 14.1 µM | 30.4 µM
CN(C)CN1C(=O)S/C(=C2\C(=O)N(CN(C)C)c3ccccc32)C1=O | – | > 100 µM | – | > 100 µM | – | > 100 µM | – | 75 µM | – | > 100 µM | – | > 100 µM | – | > 100 µM | – | 45.3 µM | – | > 100 µM | – | > 100 µM
Cc1ccc(-c2cc3nc(-c4ccccc4)nc(C(Cl)Cl)n3n2)cc1 | 1.06 µM | 2.37 µM | 1.14 µM | 2.71 µM | > 50 µM | > 50 µM | 0.845 µM | 1.88 µM | 1.11 µM | 3.53 µM | 0.911 µM | 2.19 µM | 1.52 µM | 18.6 µM | 3.73 µM | > 50 µM | 0.944 µM | 1.8 µM | 1.53 µM | 6.68 µM
